Read-outs that look alike come from different tables or passages of the source.
Assays:
[1] = molecular target: T1, NTCP (Homo sapiens, UniProt Q14973); assay: NTCP uptake of tritium labeled TCA in CHO cells; format: cell-based; conditions: at 250 μmol/L
T1 construct: host or cells: CHO cells
T1 sequence (Q14973 1-349): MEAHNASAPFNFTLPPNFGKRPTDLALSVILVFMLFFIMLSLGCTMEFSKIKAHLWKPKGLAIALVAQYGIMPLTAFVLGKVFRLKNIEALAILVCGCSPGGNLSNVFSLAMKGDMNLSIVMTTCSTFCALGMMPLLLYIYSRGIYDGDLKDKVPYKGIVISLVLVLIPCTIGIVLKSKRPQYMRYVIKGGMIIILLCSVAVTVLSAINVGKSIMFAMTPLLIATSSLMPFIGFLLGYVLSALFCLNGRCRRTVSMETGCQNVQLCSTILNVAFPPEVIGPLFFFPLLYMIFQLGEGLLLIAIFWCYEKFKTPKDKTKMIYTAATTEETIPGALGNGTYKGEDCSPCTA
From the text: […]

[2] = molecular target: T2, MDR3 (Homo sapiens, UniProt P21439); assay: MDR3 inhibition/activation in human hepatocytes (d9-choline to d9-phosphatidylcholine); format: cell-based; conditions: 200 μmol/L, N = 3
T2 construct: biotransformation of d 9‐choline to d 9‐phosphatidylcholine in human hepatocytes; host or cells: human hepatocytes
From the text: […]

[3] = system: cynomolgus monkeys; assay: 9-Month Oral Toxicity Study in Cynomolgus Monkeys; format: in vivo, cynomolgus monkey
Method: (§1) A 28-day nasogastric toxicity study was conducted in cynomolgus monkeys at up to 100 mg/kg/day and a 9-month oral toxicity study with a 3-month interim sacrifice was conducted in cynomolgus monkeys at up to 100 mg/kg/day.

[4] = 9-Month Oral Toxicity Study in Cynomolgus Monkeys; format: in vivo, cynomolgus monkey; conditions: cynomolgus monkey, plasma, oral, 100 mg/kg/day
Method: as §1

[5] = system: Sprague-Dawley rats; assay: 7-Day Oral Toxicity Study in Rats (twice daily dosing, GLP); format: in vivo
[6] = as above; format: in vivo; conditions: rat, in vivo, Day 7, 400 mg/kg/day
[7] = system: human hepatocytes; assay: mitochondrial respiratory reserve in human hepatocytes; format: cell-based; conditions: human hepatocytes treated for 25 minutes (data not shown)
[8] = system: palmitate fatty acid oxidation; assay: mitochondrial fatty acid oxidation inhibition using palmitate; format: biochemical; conditions: N = 2; read-out: IC50 for impaired palmitate fatty acid oxidation
From the text: […]

[9] = system: healthy subjects; conditions: cited from earlier work; for subjects with mild/moderate transaminase elevations: ref Pfizer data on file
[10] = system: cynomolgus monkeys; assay: 28-day Nasogastric Intubation Toxicity Study in Cynomolgus Monkeys; format: in vivo, cynomolgus monkey
Method: as §1

[11] = 100, 200, and 400 mg/kg/day, 7 days
[12] = twice daily for 7 days, up to 400 mg/kg/day

T2 sequence (P21439 whole entry): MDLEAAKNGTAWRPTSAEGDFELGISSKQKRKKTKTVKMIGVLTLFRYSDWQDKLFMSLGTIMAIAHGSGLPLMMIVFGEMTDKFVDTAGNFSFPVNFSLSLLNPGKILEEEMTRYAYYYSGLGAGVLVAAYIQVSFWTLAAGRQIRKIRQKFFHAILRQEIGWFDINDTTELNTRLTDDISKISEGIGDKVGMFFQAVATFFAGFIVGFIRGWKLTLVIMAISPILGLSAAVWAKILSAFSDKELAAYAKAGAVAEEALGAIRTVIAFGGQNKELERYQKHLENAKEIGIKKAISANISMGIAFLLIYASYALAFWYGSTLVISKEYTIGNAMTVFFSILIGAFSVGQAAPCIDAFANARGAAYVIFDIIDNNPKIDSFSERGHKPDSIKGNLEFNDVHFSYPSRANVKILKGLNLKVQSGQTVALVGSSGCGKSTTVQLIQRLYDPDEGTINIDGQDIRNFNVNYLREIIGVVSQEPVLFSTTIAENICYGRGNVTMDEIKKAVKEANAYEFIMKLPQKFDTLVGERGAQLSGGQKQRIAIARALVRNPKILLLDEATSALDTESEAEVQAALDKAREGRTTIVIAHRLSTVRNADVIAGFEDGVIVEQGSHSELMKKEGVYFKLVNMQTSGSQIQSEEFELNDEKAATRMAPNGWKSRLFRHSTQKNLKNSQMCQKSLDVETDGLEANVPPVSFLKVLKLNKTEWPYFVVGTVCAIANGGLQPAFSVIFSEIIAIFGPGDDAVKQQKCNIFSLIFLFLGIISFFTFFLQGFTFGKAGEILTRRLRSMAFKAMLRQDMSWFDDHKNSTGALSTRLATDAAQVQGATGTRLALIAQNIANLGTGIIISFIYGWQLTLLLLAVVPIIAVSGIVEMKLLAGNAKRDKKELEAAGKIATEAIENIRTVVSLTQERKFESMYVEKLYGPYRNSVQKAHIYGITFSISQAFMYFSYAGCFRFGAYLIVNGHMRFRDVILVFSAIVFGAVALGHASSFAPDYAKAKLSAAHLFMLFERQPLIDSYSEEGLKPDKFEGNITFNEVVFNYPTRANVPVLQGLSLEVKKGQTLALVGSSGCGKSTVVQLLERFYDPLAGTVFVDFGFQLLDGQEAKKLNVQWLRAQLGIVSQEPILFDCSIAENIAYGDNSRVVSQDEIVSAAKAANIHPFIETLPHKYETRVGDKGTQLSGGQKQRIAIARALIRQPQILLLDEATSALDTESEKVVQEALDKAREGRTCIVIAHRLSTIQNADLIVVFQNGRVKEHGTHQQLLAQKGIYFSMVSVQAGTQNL

O=C(Cc1ccc(F)cc1)Nn1c(C2CC2)nc2cc(F)ccc2c1=O [PF‐04895162, N‐(2‐cyclopropyl‐7‐fluoro‐4‐oxoquinazolin‐3(4H)‐yl)‐2‐(4‐fluorophenyl)ethanamide]
inhibition at 250 µM [1]: 30% | effect on MDR3 activity [2]: stimulation | hematology, coagulation, clinical chemistry, macroscopic and microscopic pathology ([3]; 9 months, up to 100 mg/kg/day): No effect of treatment | body weights, body temperatures, hematology, coagulation, clinical chemistry, ophthalmoscopic, electrocardiographic examinations ([3]; 10, 30 and 100 mg/kg/day): No effect of treatment | liver weights ([3]; males at 30 and 100 mg/kg/day, females at 100 mg/kg/day, after 9 months): increases in liver weights | mortality ([3]; one female at 100 mg/kg/day): found dead on Day 45 | clinical findings ([3]; sporadically in a few males and females at 100 mg/kg/day): Gross tremors and distended abdomens | Cmax ([4]; both sexes, after 9 months, males and females, read-out: total Cmax): ~29000 ng/mL | Cmax ([4]; studies >1 month in duration, read-out: total Cmax concentrations in the monkey): 81.6 µM | Clinical findings and body temperature [5, 11]: test article-induced hypothermic condition | hematology parameters [5, 11]: no adverse test article-related effects | mortality [5, 11]: All main study animals survived to study termination | body weight and food consumption ([5]; treated males and females): Decreases in body weight and food consumption | ALT [5, 12]: did not reproduce ALT findings | liver weight [5, 12]: increased liver weight in female rats | Cmax ([6]; female, read-out: Total Cmax (mean), female rats): 10300 ng/mL | Cmax ([6]; male, read-out: Total Cmax (mean), male rats): 7920 ng/mL | Concentrations at which mitochondrial respiratory reserve was compromised [7]: > 11 µmol/L | IC50 [8]: ~70 µM | subjects with mild/moderate transaminase elevations ([9]; 250 mg BID for 7 days): one of 12 subjects | subjects with mild/moderate transaminase elevations ([9]; 300 mg BID for 7 days): one of 12 subjects | liver injury in healthy subjects ([9]; multiple doses up to 200 mg BID for 7 days): No evidence of liver injury | liver injury in healthy subjects ([9]; single dose studies up to 600 mg): No evidence of liver injury | vomitus, incidence ([10]; 30 mg/kg/day, females): 1/5 | vomitus, incidence ([10]; 30 mg/kg/day, males): 1/5 | parent AUC24 at the end of the study ([10]; 100 mg/kg/day, 28 days): mild autoinduction of metabolism | ataxia, incidence ([10]; 100 mg/kg/day, females): 2/5 | body tremors, incidence ([10]; 100 mg/kg/day, females): 3/5 | dilated pupils, incidence ([10]; 100 mg/kg/day, females): 4/5 | hunched posture, incidence ([10]; 100 mg/kg/day, females): 3/5 | squinting, incidence ([10]; 100 mg/kg/day, females): 1/5 | vomitus, incidence ([10]; 100 mg/kg/day, females): 2/5 | ataxia, incidence ([10]; 100 mg/kg/day, males): 2/5 | body tremors, incidence ([10]; 100 mg/kg/day, males): 4/5 | dilated pupils, incidence ([10]; 100 mg/kg/day, males): 4/5 | hunched posture, incidence ([10]; 100 mg/kg/day, males): 3/5 | hypoactivity, incidence ([10]; 100 mg/kg/day, males): 2/5 | vomitus, incidence ([10]; 100 mg/kg/day, males): 1/5 | survival ([10]; 3, 10, 30, 100 mg/kg/day, 28 days): All animals survived to their scheduled termination | mean body (rectal) temperatures ([10]; 30 and 100 mg/kg/day, 1, 2, and/or 4 hours post-dose, first day of treatment): larger decreases in mean body (rectal) temperatures | hematology, coagulation, clinical chemistry, macroscopic and microscopic pathology ([10]; 28 days, up to 100 mg/kg/day): No effect of treatment

Source: article PMC6370995, “Phase I study of PF‐04895162, a Kv7 channel opener, reveals unexpected hepatotoxicity in healthy subjects, but not rats or monkeys: clinical evidence of disrupted bile acid homeostasis” (Pharmacology Research & Perspectives, 2019)
